Reference: article PMC7052517 (iScience, 2020)
Like-named read-outs stand apart in the source and are kept apart here.

Experiments:
α-Synuclein [1] = molecular target: T1, α-Synuclein (Homo sapiens, UniProt P37840); test: isothermal titration calorimetry; assay type: binding
α-Synuclein [2] = molecular target: T1, α-Synuclein; test: isothermal titration calorimetry; assay type: binding; remark: listed apart in the source

Row | Kd (α-Synuclein [1]) | Kd (α-Synuclein [2]) | SMILES
1 | 179 µM | – | CCCCCCCC/C=C\CCCCCCCC(=O)O [OA, oleic acid]
2 | – | 0.5 µM | CC1=C(/C=C/C(C)=C/C=C/C(C)=C/C(=O)O)C(C)(C)CCC1 [RA, retinoic acid]
3 | 221 µM | – | CC/C=C\C/C=C\C/C=C\CCCCCCCC(=O)O [ALA, α-linolenic acid]
